{"source": "patent US20230190870A1", "about": "“Method for Treating Lysosomal Storage Diseases with Histatin Peptides” (THE BOARD OF TRUSTEES OF THE UNIVERSITY OF ILLINOIS, priority 2020, published 2023)", "key": {"[1]": {"biological_target": "T1, full-length recombinant TMEM97 (HEK293 cells) (Homo sapiens, UniProt Q5BJF2)", "T1 construct": "Recombinant full-length TMEM97 (also called MAC30, from HEK293 cells); purchased OriGene (Rockville, Md.); host or cells: HEK293 cells", "T1 sequence (Q5BJF2 whole entry)": "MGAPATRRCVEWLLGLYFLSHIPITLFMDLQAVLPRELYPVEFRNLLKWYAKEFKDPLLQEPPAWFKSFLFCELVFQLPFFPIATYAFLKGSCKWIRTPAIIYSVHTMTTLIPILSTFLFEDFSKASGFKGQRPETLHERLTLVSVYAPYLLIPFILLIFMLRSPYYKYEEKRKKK", "assay": "Surface plasmon resonance, immobilized full-length TMEM97", "type": "binding"}, "[2]": {"tested_on": "HCE cells", "assay": "Immunofluorescence imaging of internalization and localization", "type": "cell-based, human", "procedure": "Immunofluorescence Imaging. HCE cells were seeded on glass coverslips (Fisher Scientific Co.; Pittsburgh, Pa.) within a 6-well plate at 3×10^5 (cells/well) seeding density. […] HCE cells were then fixed in 3.7% paraformaldehyde, permeabilized with phosphate-buffered saline (PBS) containing 0.2% TRITON™ X-100 for 5 minutes, and washed three times for 5 minutes each time in PBS. For blocking, cells were and incubated at room temperature for 30 minutes with 5% bovine serum albumin (BSA) and 5% normal goat serum in PBS. For the Endoplasmic Reticulum (ER) staining, a Cytopainter ER staining kit (Abcam; Cambridge, Mass.) was used, following the manufacturer's instructions. After washing with 1×Assay buffer, cells were incubated with Green Detection Reagent to cover the monolayer of cells. For the detection of Hst1 and TMEM97, mouse anti-Hst1 antibody (Abcam; Cambridge, Mass.), rabbit primary antibody against Hst1 (Mybiosource; San Diego, Calif.), and rabbit anti-TMEM97 antibody (Novus Bio.; Littleton, Colo.) were used. Cells were incubated overnight at 4° C. with primary antibodies, washed three times for 5 minutes each time in PBS before incubation with secondary antibodies for 30 minutes. Cells were then counterstained with 1 μg/mL 4′,6-diamidino-2-phenylindole (DAPI) solution in PBS for 3 minutes, then washed three times with PBS containing 0.05% TRITON™ X-100 for 5 minutes each time, twice with PBS for 5 minutes each time, and once with distilled water for 10 seconds. The cells were mounted in Fluoro gel with Tris buffer (Electron Microscopy Sciences; Hatfield, Pa.) and observed under a confocal microscope (Zeiss LSM 710 Confocal Microscope; Oberkochen, Germany) using a 40×objective. Fluorescent dye sold under the tradename ALEXA FLUOR® 488 NHS Ester (Molecular Probes; Carlsbad, Calif.) was used for making Alexa-488 coupled synthetic Hst1.\nTransfection/Knock-Down of TMEM97. Sub-confluent monolayers of HCE cells in grown in 35-mm six-well plates were transfected with reaction mixtures composed of 100 pmol of small interfering RNA (siRNA) to TMEM97 (Santa Cruz Biotechnology; Dallas, Tex.) for 48 hours and 5 μL of transfection reagent sold under the tradename LIPOFECTAMINE® 2000 (Invitrogen; Carlsbad, Calif.) in culture medium sold under the tradename OPTI-MEMO media (Gibco Life Technologies; Grand Island, N.Y.). Complexes were incubated for 20 minutes at 24° C. and then added to cells at 37° C. Incubation was continued for 24 to 48 hours at 37° C. in 5% CO2. Knock-down (KD) of TMEM97 was confirmed by western blot analysis using a rabbit anti-TMEM97 antibody (Novus Bio.; Littleton, Colo.). […]"}, "[3]": {"tested_on": "HCE cells", "assay": "Wound healing in vitro scratch assay", "type": "cell-based, human", "procedure": "Transfection/Knock-Down of TMEM97. Sub-confluent monolayers of HCE cells in grown in 35-mm six-well plates were transfected with reaction mixtures composed of 100 pmol of small interfering RNA (siRNA) to TMEM97 (Santa Cruz Biotechnology; Dallas, Tex.) for 48 hours and 5 μL of transfection reagent sold under the tradename LIPOFECTAMINE® 2000 (Invitrogen; Carlsbad, Calif.) in culture medium sold under the tradename OPTI-MEMO media (Gibco Life Technologies; Grand Island, N.Y.). Complexes were incubated for 20 minutes at 24° C. and then added to cells at 37° C. Incubation was continued for 24 to 48 hours at 37° C. in 5% CO2. Knock-down (KD) of TMEM97 was confirmed by western blot analysis using a rabbit anti-TMEM97 antibody (Novus Bio.; Littleton, Colo.).\nWound Healing in vitro Scratch Assay. HCE cells were cultured in a 96-well plate at 5×10^4 (cells/well) seeding density, and were grown to confluence. Subsequently, a straight line scratch mark was made with a multiscratch wound maker (IncuCyte® 96-well WoundMaker Tool, Essen Biosciences; Ann Arbor, Mich.). The cells were then washed twice with PBS to remove cellular debris. […] The wound areas were measured using ImageJ software (ImageJ 1.47v, NIH, Thornwood; Bethesda, Md.). Relative wound closure was calculated by dividing the closure of the treated wound by that of the untreated control wound. […]"}, "[4]": {"tested_on": "Human corneal epithelial cells", "assay": "Cell viability of BAK-treated human corneal epithelial cells", "type": "cell-based", "details": "benzalkonium chloride (BAK) treatment", "source_text": "Apoptosis. […] BAK and hOsm are standard inducers of corneal epithelial and neuronal cell death and toxicity, phenomena which are associated with ocular surface pain and chronic pain syndromes."}}, "note": "Entries after “also recorded” stand apart in the source; their conditions may differ. Square brackets hold non-standard residues; d marks the D form. Peptide text beside a SMILES is read from it. pS = N[C@@H](COP(=O)(O)O)C(=O)O"}
{"compound": "CC(C)C[C@H](NC(=O)[C@H](Cc1ccc(O)cc1)NC(=O)[C@H](CC(N)=O)NC(=O)[C@H](CO)NC(=O)CNC(=O)[C@H](Cc1ccc(O)cc1)NC(=O)[C@H](CC(=O)O)NC(=O)CNC(=O)[C@H](Cc1ccc(O)cc1)NC(=O)[C@H](Cc1ccccc1)NC(=O)[C@@H]1CCCN1C(=O)[C@H](Cc1ccccc1)NC(=O)[C@H](CCC(=O)O)NC(=O)[C@H](CCCNC(=N)N)NC(=O)[C@H](Cc1c[nH]cn1)NC(=O)[C@H](CO)NC(=O)[C@H](Cc1c[nH]cn1)NC(=O)[C@H](Cc1c[nH]cn1)NC(=O)[C@H](CCCCN)NC(=O)[C@H](CCC(=O)O)NC(=O)[C@H](Cc1c[nH]cn1)NC(=O)[C@H](Cc1ccccc1)NC(=O)[C@H](CCCCN)NC(=O)[C@H](CCCNC(=N)N)NC(=O)[C@H](CCCNC(=N)N)NC(=O)[C@H](Cc1ccc(O)cc1)NC(=O)CNC(=O)[C@H](Cc1c[nH]cn1)NC(=O)[C@H](Cc1c[nH]cn1)NC(=O)[C@H](CCCNC(=N)N)NC(=O)[C@H](CCCCN)NC(=O)[C@H](CCC(=O)O)NC(=O)[C@H](Cc1c[nH]cn1)NC(=O)[C@H](COP(=O)(O)O)NC(=O)[C@@H](N)CC(=O)O)C(=O)N[C@@H](Cc1ccc(O)cc1)C(=O)N[C@@H](CC(=O)O)C(=O)N[C@@H](CC(N)=O)C(=O)O", "note": "[Hst1] (H-D[pS]HEKRHHGYRRKFHEKHHSHREFPFYGDYGSNYLYDN-OH; N-terminus and C-terminus assumed)", "values": [{"measurement": "% Rmax", "setting": "[1]; SPR", "value": 32, "unit": "%"}, {"measurement": "Kd", "setting": "[1]; SPR, 25° C., 1 to 1 Langmuir kinetic model", "value": "1.3 ± 0.3", "unit": "µM"}, {"measurement": "effect of added DTG or haloperidol on Hst1 binding", "setting": "[1]; addition of either DTG or haloperidol", "value": "did not affect"}, {"measurement": "co-immunolocalization with TMEM97", "setting": "[2]; exogenously applied Hst1", "value": "significant overlap"}, {"measurement": "co-localization with endoplasmic reticulum stain", "setting": "[2]; exogenously applied Hst1", "value": "good co-localization"}, {"measurement": "internalization and/or localization in TMEM97 KD cells", "setting": "[2]; siRNA knock-down of TMEM97", "value": "significantly disrupted internalization and/or localization"}, {"measurement": "scratch closure / wound healing rate", "setting": "[3]; 20 or 50 μM, 8 and 16 hours, versus untreated control", "value": "increases in wound healing rates; also recorded: statistically significant improvement in scratch closure rates"}, {"measurement": "wound closure response in TMEM97 KD cells", "setting": "[3]; siRNA knock-down of TMEM97", "value": "abolished this responsiveness; also recorded: loss of this response"}, {"measurement": "BAK-induced loss of cell viability", "setting": "[4]", "value": "abrogated"}]}
